Experimental findings from EP0878194A1, “REMEDIES OR PREVENTIVES FOR AIDS” (SANKYO COMPANY LIMITED, priority 1996, dated 1997) are described below.

Experiment [1] relates to HIV-1IIIB strain. Briefly: In vitro combined test: survival of HIV-1IIIB-infected MT4 cells (MTT), isobologram and combination index. The experiment is classed as cell-based.
Experiment [2] deals with HIV-1IIIB strain. The description is as above. The conditions noted are these: read-out: IC50 of Preparation example 117. Type of experiment: cell-based. The protocol:
Human T cell transformed cell line MT4 cells were cultured in RPMI 1640 medium containing 10% fetal bovine serum. HIV-1IIIB strain was obtained from HIV-1IIIB chronically infected Molt-4 cells as a supernatant fluid and used as the source of infectious viruses. The 50% tissue culture infectious dose (TCID50) of this fluid was determined by the endpoint titration methods.
The compound of Preparation example 117 was added in a serial dilution in the vertical direction to six 96-well microtiter plates. As a result of adding ZDV (Sigma) in a serial dilution in the horizontal direction, diluted solutions containing mixtures of various concentrations were prepared in 96-well microtiter plates (n=4).
MT4 cells were exposed to HIV-1IIIB fluid at a multiplicity of infection (m.o.i) 0.001 TCID50/ml at 37°C for 1 hour, then the cells were washed twice with PBS, and aliquots (5 x 10^4 cells/well) were placed in the plates containing various concentration of agent prepared as described above. After incubation for 6 days, the survival rate of infected MT4 cells was determined by the cell survival test using MTT (Sigma). Incidentally, in this test, the absorbance at O.D. 540 nm was measured by a plate reader, and the survival rate was determined by drawing a cell survival curve.
Analysis was performed according to the method of Barenbaum using an isobologram and combination index (CI) (Barenbaum, M.C., Pharmacol. Rev., 41, 93-141, 1989). In this case, the CI value was calculated by the general isobole equation. Determination of synergy, addition and […] was performed by isobologram curve patterns and/or statistical comparison of experimental CI values with CI values in typical additive effects (CI values when identical compounds are used in combination (0.85±0.11, Taylor, D.L. et al., Antiviral Chem. Chemother., 6, 143-152, 1995)).

Read-outs that look alike come from different tables or passages of the source.

Consider `Nc1ccn([C@@H]2CS[C@H](CO)O2)c(=O)n1` [3TC, 4-amino-1-(2-hydroxymethyl-1,3-oxathioran-5-yl)-(1H)-pyrimidin-2-one, reference compound], for which the IC50 in the experiment on HIV-1IIIB strain [1] (Human immunodeficiency virus 1, MT4, alone (Preparation example 117 0), Table 33 experiment, read-out: IC50 of 3TC) is 0.6 mg/L; in the experiment with HIV-1IIIB strain [1] (Human immunodeficiency virus 1, MT4, with Preparation example 117 0.38 ng/ml, read-out: IC50 of 3TC) it was 0.5 mg/L; with HIV-1IIIB strain [1] (Human immunodeficiency virus 1, MT4, with Preparation example 117 0.78 ng/ml, read-out: IC50 of 3TC), 0.52 mg/L; with HIV-1IIIB strain [1] (Human immunodeficiency virus 1, MT4, with Preparation example 117 0.96 ng/ml, read-out: IC50 of 3TC), 0.5 mg/L; in the experiment with HIV-1IIIB strain [1] (Human immunodeficiency virus 1, MT4, with Preparation example 117 1.56 ng/ml, read-out: IC50 of 3TC), 0.43 mg/L; in the experiment with HIV-1IIIB strain [1] (Human immunodeficiency virus 1, MT4, with Preparation example 117 3.13 ng/ml, read-out: IC50 of 3TC), 0.34 mg/L. The IC50 amounted to 0.25 mg/L with HIV-1IIIB strain [1] (Human immunodeficiency virus 1, MT4, with Preparation example 117 4.57 ng/ml, read-out: IC50 of 3TC); 0.19 mg/L in the experiment with HIV-1IIIB strain [1] (Human immunodeficiency virus 1, MT4, with Preparation example 117 6.25 ng/ml, read-out: IC50 of 3TC); 0.125 mg/L in the experiment on HIV-1IIIB strain [1] (Human immunodeficiency virus 1, MT4, with Preparation example 117 8.0 ng/ml, read-out: IC50 of 3TC); 0.063 mg/L in the experiment on HIV-1IIIB strain [1] (Human immunodeficiency virus 1, MT4, with Preparation example 117 12.4 ng/ml, read-out: IC50 of 3TC); 0.0313 mg/L in the experiment with HIV-1IIIB strain [1] (Human immunodeficiency virus 1, MT4, with Preparation example 117 12.7 ng/ml, read-out: IC50 of 3TC); 0.0156 mg/L in the experiment on HIV-1IIIB strain [1] (Human immunodeficiency virus 1, MT4, with Preparation example 117 13.0 ng/ml, read-out: IC50 of 3TC).
Turning to `OC[C@@H]1CC[C@H](n2cnc3c(O)ncnc32)O1` [DDI, 2',3'-dideoxyinosine, reference compound], the IC50 turned out to be 5.4 µM with HIV-1IIIB strain [1] (Human immunodeficiency virus 1, MT4, alone (Preparation example 117 0), Table 34 experiment, read-out: IC50 of DDI); 4.27 µM with HIV-1IIIB strain [1] (Human immunodeficiency virus 1, MT4, with Preparation example 117 0.39 ng/ml, read-out: IC50 of DDI); 4.38 µM in the experiment on HIV-1IIIB strain [1] (Human immunodeficiency virus 1, MT4, with Preparation example 117 0.78 ng/ml, read-out: IC50 of DDI); 3.65 µM in the experiment on HIV-1IIIB strain [1] (Human immunodeficiency virus 1, MT4, with Preparation example 117 1.56 ng/ml, read-out: IC50 of DDI); 2.8 µM with HIV-1IIIB strain [1] (Human immunodeficiency virus 1, MT4, with Preparation example 117 3.13 ng/ml, read-out: IC50 of DDI); 2.5 µM in the experiment on HIV-1IIIB strain [1] (Human immunodeficiency virus 1, MT4, with Preparation example 117 3.85 ng/ml, read-out: IC50 of DDI). In addition, the IC50 with HIV-1IIIB strain [1] (Human immunodeficiency virus 1, MT4, with Preparation example 117 6.25 ng/ml, read-out: IC50 of DDI) was 1.67 µM; in the experiment on HIV-1IIIB strain [1] (Human immunodeficiency virus 1, MT4, with Preparation example 117 7.70 ng/ml, read-out: IC50 of DDI), 1.25 µM; in the experiment with HIV-1IIIB strain [1] (Human immunodeficiency virus 1, MT4, with Preparation example 117 10.0 ng/ml, read-out: IC50 of DDI), 0.63 µM; with HIV-1IIIB strain [1] (Human immunodeficiency virus 1, MT4, with Preparation example 117 10.5 ng/ml, read-out: IC50 of DDI), 0.313 µM; in the experiment with HIV-1IIIB strain [1] (Human immunodeficiency virus 1, MT4, with Preparation example 117 11.0 ng/ml, read-out: IC50 of DDI), 0.156 µM.
For the molecule `Cn1cc(C(=O)O)c(=O)c2cc(F)c(N3CCN(c4ncccn4)CC3)c(C(F)(F)F)c21` [Preparation example 117, 6-fluoro-8-trifluoromethyl-1,4-dihydro-4-oxo-1-methyl-7-[4-(2-pyrimidinyl)piperazin-1-yl]quinoline-3-carboxylic acid], the IC50 with HIV-1IIIB strain [2] (Human immunodeficiency virus 1, MT4, with ZDV 1.56 ng/ml) was determined as 0.0241 mg/L; in the experiment with HIV-1IIIB strain [2] (Human immunodeficiency virus 1, MT4, with ZDV 6.25 ng/ml) it was 0.0111 mg/L; in the experiment on HIV-1IIIB strain [2] (Human immunodeficiency virus 1, MT4, with ZDV 11.6 ng/ml), 0.00625 mg/L; in the experiment on HIV-1IIIB strain [2] (Human immunodeficiency virus 1, MT4, with ZDV 13.9 ng/ml), 0.00313 mg/L; in the experiment on HIV-1IIIB strain [1] (Human immunodeficiency virus 1, MT4, alone (3TC 0), Table 33 experiment, read-out: IC50 of Preparation example 117), 0.016 mg/L; in the experiment with HIV-1IIIB strain [1] (Human immunodeficiency virus 1, MT4, alone (DDI 0), Table 34 experiment, read-out: IC50 of Preparation example 117) it was 0.014 mg/L. The IC50 in the experiment on HIV-1IIIB strain [1] (Human immunodeficiency virus 1, MT4, alone (ZDV 0), Table 32 experiment, read-out: IC50 of Preparation example 117) came to 0.039 mg/L; in the experiment on HIV-1IIIB strain [1] (Human immunodeficiency virus 1, MT4, with 3TC 0.0156 µg/ml, read-out: IC50 of Preparation example 117), 0.013 mg/L; with HIV-1IIIB strain [1] (Human immunodeficiency virus 1, MT4, with 3TC 0.0313 µg/ml, read-out: IC50 of Preparation example 117), 0.0127 mg/L; in the experiment with HIV-1IIIB strain [1] (Human immunodeficiency virus 1, MT4, with 3TC 0.063 µg/ml, read-out: IC50 of Preparation example 117), 0.0124 mg/L; in the experiment with HIV-1IIIB strain [1] (Human immunodeficiency virus 1, MT4, with 3TC 0.125 µg/ml, read-out: IC50 of Preparation example 117) it was 0.008 mg/L; with HIV-1IIIB strain [1] (Human immunodeficiency virus 1, MT4, with 3TC 0.19 µg/ml, read-out: IC50 of Preparation example 117) it was 0.00625 mg/L. Further, the IC50 turned out to be 0.00457 mg/L with HIV-1IIIB strain [1] (Human immunodeficiency virus 1, MT4, with 3TC 0.25 µg/ml, read-out: IC50 of Preparation example 117); 0.00313 mg/L with HIV-1IIIB strain [1] (Human immunodeficiency virus 1, MT4, with 3TC 0.34 µg/ml, read-out: IC50 of Preparation example 117); 0.00156 mg/L in the experiment with HIV-1IIIB strain [1] (Human immunodeficiency virus 1, MT4, with 3TC 0.43 µg/ml, read-out: IC50 of Preparation example 117); 0.00096 mg/L in the experiment with HIV-1IIIB strain [1] (Human immunodeficiency virus 1, MT4, with 3TC 0.50 µg/ml (Table 33, first line with 0.50), read-out: IC50 of Preparation example 117); 0.00038 mg/L with HIV-1IIIB strain [1] (Human immunodeficiency virus 1, MT4, with 3TC 0.50 µg/ml (Table 33, second line with 0.50), read-out: IC50 of Preparation example 117); 0.00078 mg/L with HIV-1IIIB strain [1] (Human immunodeficiency virus 1, MT4, with 3TC 0.52 µg/ml, read-out: IC50 of Preparation example 117). Besides, the IC50 in the experiment on HIV-1IIIB strain [1] (Human immunodeficiency virus 1, MT4, with DDI 0.156 µM, read-out: IC50 of Preparation example 117) is 0.011 mg/L; in the experiment on HIV-1IIIB strain [1] (Human immunodeficiency virus 1, MT4, with DDI 0.313 µM, read-out: IC50 of Preparation example 117), 0.0105 mg/L; with HIV-1IIIB strain [1] (Human immunodeficiency virus 1, MT4, with DDI 0.63 µM, read-out: IC50 of Preparation example 117) it was 0.01 mg/L; in the experiment with HIV-1IIIB strain [1] (Human immunodeficiency virus 1, MT4, with DDI 1.25 µM, read-out: IC50 of Preparation example 117), 0.0077 mg/L; with HIV-1IIIB strain [1] (Human immunodeficiency virus 1, MT4, with DDI 1.67 µM, read-out: IC50 of Preparation example 117), 0.00625 mg/L; in the experiment on HIV-1IIIB strain [1] (Human immunodeficiency virus 1, MT4, with DDI 2.50 µM, read-out: IC50 of Preparation example 117), 0.00385 mg/L. Moreover, the IC50 in the experiment on HIV-1IIIB strain [1] (Human immunodeficiency virus 1, MT4, with DDI 2.80 µM, read-out: IC50 of Preparation example 117) amounted to 0.00313 mg/L; in the experiment with HIV-1IIIB strain [1] (Human immunodeficiency virus 1, MT4, with DDI 3.65 µM, read-out: IC50 of Preparation example 117), 0.00156 mg/L; in the experiment on HIV-1IIIB strain [1] (Human immunodeficiency virus 1, MT4, with DDI 4.27 µM, read-out: IC50 of Preparation example 117), 0.00039 mg/L; in the experiment on HIV-1IIIB strain [1] (Human immunodeficiency virus 1, MT4, with DDI 4.38 µM, read-out: IC50 of Preparation example 117) it was 0.00078 mg/L; in the experiment with HIV-1IIIB strain [1] (Human immunodeficiency virus 1, MT4, with ZDV 0.78 ng/ml, read-out: IC50 of Preparation example 117) it was 0.028 mg/L; in the experiment with HIV-1IIIB strain [1] (Human immunodeficiency virus 1, MT4, with ZDV 1.20 ng/ml, read-out: IC50 of Preparation example 117), 0.025 mg/L. The IC50 with HIV-1IIIB strain [1] (Human immunodeficiency virus 1, MT4, with ZDV 3.13 ng/ml, read-out: IC50 of Preparation example 117) was 0.0162 mg/L; in the experiment with HIV-1IIIB strain [1] (Human immunodeficiency virus 1, MT4, with ZDV 5.60 ng/ml, read-out: IC50 of Preparation example 117) it was 0.0125 mg/L; in the experiment on HIV-1IIIB strain [1] (Human immunodeficiency virus 1, MT4, with ZDV 12.5 ng/ml, read-out: IC50 of Preparation example 117) it was 0.0053 mg/L; with HIV-1IIIB strain [1] (Human immunodeficiency virus 1, MT4, with ZDV 14.5 ng/ml, read-out: IC50 of Preparation example 117) it was 0.00156 mg/L.
